Measurements reported in US20250325517A1, “ORAL DOSAGE FORMS OF ELRAGLUSIB” (Actuate Therapeutics, Inc., priority 2022, published 2025).

Assay: in vivo
Set-up: species or system Beagle dogs
Details: male, Beagle, dog; for AUC(0-inf): AUCINF; for AUC(0-t): AUClast
Description: The objective of this study was to evaluate the pharmacokinetic profile of elraglusib following single oral and intravenous doses in Beagle dogs.
The test article (elraglusib in a vehicle of 85% PEG400, 10% ethanol, 5% water (all components are weight/weight/weight)) was administered orally and via intravenous infusion to dogs according to the tables below.
Male Beagle dogs were selected for use in this study. Animals were at least 6 months old and males weighed approximately 9.3-10.8 kilograms at the start of dosing.
The study animals received a single oral dose of elraglusib followed by an approximate 7-day washout period after which they received a single intravenous infusion of elraglusib. Animals underwent standard evaluations such as body weight and clinical observations, and were bled for pharmacokinetics following each dose.
Plasma concentrations of elraglusib were determined for dogs treated with 20 mg/kg elraglusib via oral administration on Day 1 and then again via intravenous infusion on Day 8. […] Individual plasma concentrations were highest approximately 2-8 hours after oral administration (1,410-1,880 ng/mL), and highest at approximately 5 minutes following intravenous administration (11,800-13,600 ng/mL).

**Q.** Which bioavailability does the source give for `Cn1cc(C2=C(c3coc4ccc(F)cc34)C(=O)NC2=O)c2cc3c(cc21)OCO3` [elraglusib, 3-(5-fluorobenzofuran-3-yl)-4-(5-methyl-5H-[1,3]dioxolo[4,5-f]indol-7-yl)-1H-pyrrole-2,5-dione] here?
**A.** Its bioavailability is 31%.

**Q.** What about the “AUClast, IV versus PO” value (20 mg/kg) of the same molecule?
**A.** The value was “approximately 3 fold”.

**Q.** And the AUC (iv, 20 mg/kg)?
**A.** Its AUC is 68900 ng·h/mL.

**Q.** What about the “highest individual plasma concentrations” value (iv, 20 mg/kg) of the same molecule?
**A.** Its value is 11,800-13,600 ng/mL.

**Q.** What about the “time of highest individual plasma concentrations” value (iv, 20 mg/kg) of the same molecule?
**A.** The value was “approximately 5 minutes”.

**Q.** And the AUC(0-inf) (iv, 20 mg/kg)?
**A.** The AUC(0-inf) was 72800 ng·h/mL.

**Q.** What about the AUC(0-t) (iv, 20 mg/kg) of the same molecule?
**A.** The AUC(0-t) was 68900 ng·h/mL.

**Q.** And the Cmax (iv, 20 mg/kg)?
**A.** Its Cmax is 12800 ng/mL.

**Q.** And the Tmax (iv, 20 mg/kg, Tmax)?
**A.** Its Tmax is 4.98 min.

**Q.** And the half-life (iv, 20 mg/kg, t1/2)?
**A.** The half-life was 6.05 h.

**Q.** What about the AUC (po, 20 mg/kg) of the same molecule?
**A.** The AUC was 21300 ng·h/mL.

**Q.** And the “highest individual plasma concentrations” value (po, 20 mg/kg)?
**A.** Its value is 1,410-1,880 ng/mL.

**Q.** What about the “time of highest individual plasma concentrations” value (po, 20 mg/kg) of the same molecule?
**A.** Its value is 2 to 8 h.

**Q.** What about the AUC(0-inf) (po, 20 mg/kg) of the same molecule?
**A.** The AUC(0-inf) was 22600 ng·h/mL.

**Q.** What about the AUC(0-t) (po, 20 mg/kg) of the same molecule?
**A.** Its AUC(0-t) is 21300 ng·h/mL.

**Q.** What about the Cmax (po, 20 mg/kg) of the same molecule?
**A.** Its Cmax is 1670 ng/mL.
